From patent US12077503B2, “Substituted cyclic amides and their use as herbicides” (FMC CORPORATION, priority 2015, dated 2024)

What was measured:
Assay type in all cases: in vivo
Kochia (Kochia scoparia) [1] = experiment: Test A preemergence; conditions: Preemergence; for Plant response rating, Kochia: 125 g ai/ha, visual injury after approximately 10 d, 0 to 100 scale where 0 is no effect and 100 is complete control; for Kochia plant response rating (0 to 100 scale, 0 is no effect, 100 is complete control): 500 g ai/ha, visual injury approx. 10 d
Description: (§1) Seeds of plant species selected from barnyardgrass (Echinochloa crus-galli), Kochia (Kochia scoparia), ragweed (common ragweed, Ambrosia elatior), ryegrass, Italian (Italian ryegrass, Lolium multiflorum), crabgrass, large (Digitaria sanguinalis), giant foxtail (Setaria faberii), green foxtail (Setaria viridis), morningglory (Ipomoea spp.), pigweed (Amaranthus retroflexus), velvetleaf (Abutilon theophrasti), wheat (Triticum aestivum), and corn (Zea mays) were planted into a blend of loam soil and sand and treated preemergence with a directed soil spray using test chemicals formulated in anon-phytotoxic solvent mixture which included a surfactant.
(§2) At the same time, plants selected from these crop and weed species and also blackgrass (Alopecurus myosuroides), and Galium (catchweed bedstraw, Galium aparine) were planted in pots containing the same blend of loam soil and sand and treated with postemergence applications of test chemicals formulated in the same manner. Plants ranged in height from 2 to 10 cm and were in the one- to two-leaf stage for the postemergence treatment. Treated plants and untreated controls were maintained in a greenhouse for approximately 10 d, after which time all treated plants were compared to untreated controls and visually evaluated for injury. Plant response ratings, summarized in Table A, are based on a 0 to 100 scale where 0 is no effect and 100 is complete control. A dash (-) response means no test result.

[2] = test system: barnyardgrass (Echinochloa crus-galli); experiment: Test A preemergence; conditions: Preemergence; for Plant response rating, Barnyardgrass: 125 g ai/ha, visual injury after approximately 10 d, 0 to 100 scale where 0 is no effect and 100 is complete control; for Barnyardgrass plant response rating (0 to 100 scale, 0 is no effect, 100 is complete control): 500 g ai/ha, visual injury approx. 10 d
Description: as §1, §2

[3] = test system: giant foxtail (Setaria faberii); experiment: Test A preemergence; conditions: Preemergence; for Plant response rating, Foxtail, Giant: 125 g ai/ha, visual injury after approximately 10 d, 0 to 100 scale where 0 is no effect and 100 is complete control; for Foxtail, Giant plant response rating (0 to 100 scale, 0 is no effect, 100 is complete control): 500 g ai/ha, visual injury approx. 10 d
Description: as §1, §2

[4] = test system: pigweed (Amaranthus retroflexus); experiment: Test A preemergence; conditions: Preemergence; for Plant response rating, Pigweed: 125 g ai/ha, visual injury after approximately 10 d, 0 to 100 scale where 0 is no effect and 100 is complete control; for Pigweed plant response rating (0 to 100 scale, 0 is no effect, 100 is complete control): 500 g ai/ha, visual injury approx. 10 d
Description: as §1, §2

[5] = test system: ragweed (common ragweed, Ambrosia elatior); experiment: Test A preemergence; conditions: Preemergence; for Plant response rating, Ragweed: 125 g ai/ha, visual injury after approximately 10 d, 0 to 100 scale where 0 is no effect and 100 is complete control; for Ragweed plant response rating (0 to 100 scale, 0 is no effect, 100 is complete control): 500 g ai/ha, visual injury approx. 10 d
Description: as §1, §2

[6] = test system: ryegrass, Italian (Italian ryegrass, Lolium multiflorum); experiment: Test A preemergence; conditions: Preemergence; for Plant response rating, Ryegrass, Italian: 125 g ai/ha, visual injury after approximately 10 d, 0 to 100 scale where 0 is no effect and 100 is complete control; for Ryegrass, Italian plant response rating (0 to 100 scale, 0 is no effect, 100 is complete control): 500 g ai/ha, visual injury approx. 10 d
Description: as §1, §2

[7] = test system: Galium (catchweed bedstraw, Galium aparine); experiment: Test A postemergence
Description: as §1, §2

Kochia (Kochia scoparia) [8] = experiment: Test A postemergence
Description: as §1, §2

[9] = test system: barnyardgrass (Echinochloa crus-galli); experiment: Test A postemergence
Description: as §1, §2

[10] = test system: blackgrass (Alopecurus myosuroides); experiment: Test A postemergence
Description: as §1, §2

corn (Zea mays) = experiment: Test A postemergence
Description: as §1, §2

[11] = test system: giant foxtail (Setaria faberii); experiment: Test A postemergence
Description: as §1, §2

[12] = test system: pigweed (Amaranthus retroflexus); experiment: Test A postemergence
Description: as §1, §2

[13] = test system: ragweed (common ragweed, Ambrosia elatior); experiment: Test A postemergence
Description: as §1, §2

[14] = test system: ryegrass, Italian (Italian ryegrass, Lolium multiflorum); experiment: Test A postemergence
Description: as §1, §2

[15] = test system: wheat (Triticum aestivum); experiment: Test A postemergence
Description: as §1, §2

[16] = 125 g ai/ha, postemergence, visual injury rating on 0 to 100 scale (0 no effect, 100 complete control), approx. 10 d
[17] = Postemergence, 500 g ai/ha, 0 to 100 scale where 0 is no effect and 100 is complete control
[18] = 125 g ai/ha, postemergence, visual rating after approx. 10 d, 0 to 100 scale (0 no effect, 100 complete control)

Compound | Plant response rating, Kochia (Kochia (Kochia scoparia) [1]) | Kochia plant response rating (0 to 100 scale, 0 is no effect, 100 is complete control) (Kochia (Kochia scoparia) [1]) | Plant response rating, Barnyardgrass [2] | Barnyardgrass plant response rating (0 to 100 scale, 0 is no effect, 100 is complete control) [2] | Plant response rating, Foxtail, Giant [3] | Foxtail, Giant plant response rating (0 to 100 scale, 0 is no effect, 100 is complete control) [3] | Plant response rating, Pigweed [4] | Pigweed plant response rating (0 to 100 scale, 0 is no effect, 100 is complete control) [4] | Plant response rating, Ragweed [5] | Ragweed plant response rating (0 to 100 scale, 0 is no effect, 100 is complete control) [5] | Plant response rating, Ryegrass, Italian [6] | Ryegrass, Italian plant response rating (0 to 100 scale, 0 is no effect, 100 is complete control) [6] | Plant response rating, Galium [7, 17] | Plant response rating, Kochia (Kochia (Kochia scoparia) [8]; [17]) | Plant response rating, Barnyardgrass [9, 17] | Plant response rating, Blackgrass [10, 17] | Plant response rating, Corn (corn (Zea mays); [17]) | Plant response rating, Foxtail, Giant [11, 17] | Plant response rating, Pigweed [12, 17] | Plant response rating, Ragweed [13, 17] | other results
O=C1NCC(c2cc(Br)cs2)C1C(=O)Nc1cccc(F)c1F (racemic) [Compound 510] | 30 | 50 | 60 | 80 | 60 | 70 | 0 | 0 | 30 | 50 | 0 | 10 | 0 | 40 | 70 | 40 | 0 | 30 | 0 | 30 | Galium plant response rating [7, 16]: 0; Kochia plant response rating (Kochia (Kochia scoparia) [8]; [16]): 0; Barnyardgrass plant response rating [9, 16]: 60; Blackgrass plant response rating [10, 16]: 0; Corn plant response rating (corn (Zea mays); [16]): 0; Foxtail, Giant plant response rating [11, 16]: 10; Pigweed plant response rating [12, 16]: 0; Ragweed plant response rating [13, 16]: 0; Ryegrass, Italian plant response rating [14, 16]: 0; Plant response rating, Ryegrass, Italian [14, 17]: 20; Wheat plant response rating [15, 16]: 0; Plant response rating, Wheat [15, 17]: 0
Cc1ccc(C2CN(C)C(=O)C2C(=O)Nc2ccccc2S(C)(=O)=O)c(F)c1 (stereo not shown) [Compound 558] | 70 | 80 | 90 | 100 | 90 | 100 | 30 | 70 | 50 | 70 | 0 | 60 | 60 | 70 | 100 | 60 | 20 | 90 | 0 | 40 | Plant response rating, Galium [7, 18]: 30; Plant response rating, Kochia (Kochia (Kochia scoparia) [8]; [18]): 20; Plant response rating, Barnyardgrass [9, 18]: 80; Plant response rating, Blackgrass [10, 18]: 20; Plant response rating, Corn (corn (Zea mays); [18]): 0; Plant response rating, Foxtail, Giant [11, 18]: 70; Plant response rating, Pigweed [12, 18]: 0; Plant response rating, Ragweed [13, 18]: 0; Plant response rating, Ryegrass, Italian [14, 18]: 0; Plant response rating, Ryegrass, Italian [14, 17]: 40; Plant response rating, Wheat [15, 18]: 0; Plant response rating, Wheat [15, 17]: 40
